From US8148392B2, “2-indolyl imidazo [4,5-d] phenanthroline derivatives and their use in the treatment of cancer” (Lorus Therapeutics Inc., priority 2005, dated 2012)
Entries after “also recorded” stand apart in the source; their conditions may differ. Like-named read-outs stand apart in the source and are kept apart here.

How the values were obtained:
Format in all cases: cell-based, human
[1] = tested on: DU-145 prostate cancer cells; experiment: XTT cell proliferation assay, DU-145; settings: read-out: IC50 (cell growth inhibition)
Protocol: (§1) Cell growth inhibition IC50 (μM) by compounds of Formula I was tested on various cancer cell types by XTT cell proliferation assay. The growth inhibitory effects of the compounds of Formula I as shown below for the melanoma cell line SK-MEL-2 were reproducible by Lorus Therapeutics Inc.

CCRF-CEM leukemia cells = experiment: XTT cell proliferation assay, CCRF-CEM; settings: read-out: IC50 (cell growth inhibition)
Protocol: as §1

MOLT-4 leukemia cells = experiment: XTT cell proliferation assay, MOLT-4; settings: read-out: IC50 (cell growth inhibition)
Protocol: as §1

SK-MEL-2 melanoma cells = experiment: XTT cell proliferation assay, SK-MEL-2; settings: read-out: IC50 (cell growth inhibition)
Protocol: as §1

KLF4 [2] = experiment: KLF4 gene expression by RT-PCR, DU-145; settings: DU-145, relative to vehicle control as 1
Text: (§2) Gene expression levels of KLF4, induced by compounds of Formula I, were also examined on various cancer cell types by RT-PCR. Fold changes in KLF4 in compound-treated cells were expressed relative to KLF4 expression in vehicle control-treated cells of respective cell type as “1”. […] Additionally, xenografts of MDA-MB-435 implanted into mammary fat pads of female SCID mice have shown immunohistochemical staining consistent with melanocytic origin (Ellison G, Klinowska T, Westwood R F, Docter E, French T, Fox J C. (2002) Mol Pathol. 55(5): 294-299). The breast cancer cell line MDA-MB-435 may be expected to function differently than the other breast cancer cell lines.

KLF4 [3] = experiment: KLF4 gene expression by RT-PCR, SK-MEL-2; settings: SK-MEL-2, relative to vehicle control as 1
Text: as §2

[4] = tested on: metallothionein 1A (MT1A); experiment: Metallothionein 1A (MT1A) mRNA expression in HT-29 cells, real time PCR; settings: for MT1A expression change with zinc supplement: HT-29, 1 μM compound plus 35 μM ZnCl2; for MT1A gene expression, change: HT-29, versus DMSO control, in words
Protocol: To determine whether compounds of Formula I can chelate zinc in cells, the effect of compound 3 on the expression level of a zinc-regulated gene, metallothionein 1A (MT1A), in human colon carcinoma HT-29 cells, was determined. HT-29 cells, 1×10^6 cells in 10 mL volume of the growth medium were seeded in 100 mm dishes and incubated overnight at 37° C. The medium was removed and replaced with the growth medium containing 35 μM ZnCl2, 1 μM or 4 μM TPEN (NNNN-tetrakis(2-pyridyl-methyl)ethylenediamine), or 1 μM or 4 μM compound 3, or 0.1% DMSO vehicle control. After incubation for 16 hours, the cells were detached by trypsinization, collected by centrifugation and washed once with PBS. Total RNA was extracted by using TRIZOL (Invitrogen, Life Technologies, Carlsbad, Calif.), following manufacturer's instruction, and the level of MT1A mRNA was measured by real time PCR using the comparative CT method as follows. First strand cDNA was synthesized from 200 ng total RNA in Biometra Tpersonal Thermal Cycler (Abgene, UK), using pd(N)6 random hexamer (Amersham Biosciences, Piscataway, N.J.) and SuperScript™ II Reverse Transcriptase kit (Invitrogen) by following manufacturer's protocol. Real-time PCR was performed in ABI Prism 7000 Sequence Detection System (Applied Biosystems Inc., ABI, Foster City, Calif.), using 5 μL of cDNA synthesized by above-mentioned procedure and respective TaqMan® Gene Expression Assays (ABI) by following ABI TaqMan® Universal PCR master mix protocol.
The effect of compound 3 and compound 7 treatment on the expressions of a zinc-storage protein meallothionein 1A (MT1A) (FIG. 29A), a copper transporter, Ctrl also known as SLC31A1 (FIG. 29B) and an iron transporter; transferrin receptor 1 (TfR1) (FIG. 29C) were measured and compared with a known zinc chelator TPEN, a copper chelator tetramine and an iron chelator DFO, respectively. Despite in vitro chelation of Cu^+2, increase in copper-sensitive gene after compound 3 treatment was transient.
HT-29 cells were treated with 1 μM compound 3 for the indicated time and MT1A gene expression was measured as follows. Total RNA was extracted using TRIZOL method and gene expression level was determined by quantitative reverse-transcription polymerase chain reaction (RT-PCR). MT1A gene expression was normalized with β-actin gene expression in the same sample. Fold change in MT1A was expressed relative to MT1A level of DMSO control at respective time points.
To verify that the MT1A gene expression reflected the intracellular zinc level, HT-29 cells were treated with 1 μM compound 3, 35 μM ZnCl2 or compound 3 and ZnCl2 together for 16 hr (FIG. 38B). MT1A gene expression was determined by RT-PCR as described above. MT1A gene expression was elevated in response to increased intracellular zinc ions in ZnCl2-treated cells.
(§3) The ability of compounds of Formula I to modulate gene expression of MT1A (FIG. 55A), MTF-1 (FIG. 55B), Cyclin D1 (FIG. 55C) and KLF4 (FIG. 55D) was determined by RT-PCR. HT-29 cells were treated with 1 μM compound 3 or compound 7, 35 μM ZnCl2, compound 3 and ZnCl2 together, or compound 7 and ZnCl2 together for 8 to 16 hr. The respective gene expression was normalized with β-actin gene expression in the same sample. Fold change in gene expression was expressed relative to the respective gene level of DMSO control.
(§4) The effect of compound 3 and compound 64 on gene expression changes in MT1A (FIG. 57A), MTF-1 (FIG. 57B), Cyclin D1 (FIG. 57C) and KLF4 (FIG. 57D) in HT-29 cells was determined by RT-PCR. HT-29 cells were treated with 1 μM compound 3 or compound 64, 35 μM ZnCl2, compound 3 and ZnCl2 together, or compound 64 and ZnCl2 together for 8 to 16 hr. The respective gene expression was normalized with β-actin gene expression in the same sample. Fold change in gene expression was expressed relative to the respective gene level of DMSO control.

MTF-1 = MTF-1 gene expression in HT-29 cells, RT-PCR; settings: for MTF-1 expression change with zinc supplement: HT-29, 1 μM compound plus ZnCl2, 8 hr; for MTF-1 gene expression, change: HT-29, 1 μM, in words
Protocol: The gene expression of MTF-1 was examined by RT-PCR following treatment of HT-29 cells with 1 μM compound 3 for indicated time.
To assess the cellular response to zinc depletion, the gene expression of zinc-sensitive transcription factor MTF-1 was examined.
as §3, §4

Row | IC50 [1] [nM] | IC50 (CCRF-CEM leukemia cells) [nM] | IC50 (MOLT-4 leukemia cells) [nM] | IC50 (SK-MEL-2 melanoma cells) [nM] | Structure (SMILES) | IC50 ([1]; Homo sapiens) [nM] | IC50 (CCRF-CEM leukemia cells; Homo sapiens) [nM] | IC50 (MOLT-4 leukemia cells; Homo sapiens) [nM] | IC50 (SK-MEL-2 melanoma cells; Homo sapiens) [nM] | KLF4 (gene fold increase) (KLF4 [2]) [fold] | KLF4 (gene fold increase) (KLF4 [3]) [fold] | MT1A expression change with zinc supplement [4] | decrease of MT1A expression ([4]; HT-29, 16 hours, 1 μM or 4 μM) | MT1A gene expression, change [4] | MTF-1 expression change with zinc supplement (MTF-1) | MTF-1 gene expression, change (MTF-1)
1 | – | – | – | – | Cc1[nH]c2ccccc2c1-c1nc2c3cccnc3c3ncccc3c2[nH]1 [Compound 3] | 350 | 420 | 150 | 250 | 9.16 | 2.38 | reversed by addition of zinc supplement | more than 50% | sustained decrease in zinc-sensitive gene; also recorded: decrease in MT1A gene expression was obvious after 8 hr treatment; also recorded: decreased expressions of MT1A, MTF-1 and Cyclin D1 | recovered by addition of zinc supplement; also recorded: reversed by addition of zinc supplement | Time-dependent decreases; also recorded: decrease in MTF-1 expression was observed after 8 hr treatment; also recorded: significant decrease in gene expression of MTF-1; also recorded: decreased expressions of MT1A, MTF-1 and Cyclin D1
2 | – | – | – | – | Cc1[nH]c2ccc(F)cc2c1-c1nc2c3cccnc3c3ncccc3c2[nH]1 [Compound 7] | 220 | 400 | 70 | 200 | 11.24 | 3.32 | reversed by addition of zinc supplement | – | decreased expressions of MT1A, MTF-1 and Cyclin D1 | reversed by addition of zinc supplement | decreased expressions of MT1A, MTF-1 and Cyclin D1
3 | 300 | 250 | 175 | 200 | CCc1cccc2c(-c3nc4c5cccnc5c5ncccc5c4[nH]3)c(C(C)(C)C)[nH]c12 [Compound 64] | – | – | – | – | 6.75 | 5.35 | reversed by addition of zinc supplement | – | decreased expressions of MT1A, MTF-1 and Cyclin D1 | reversed by addition of zinc supplement | decreased expressions of MT1A, MTF-1 and Cyclin D1
